From patent publication US9000018B2, “Thiazolidin-4-one-derivatives” (Actelion Pharmaceuticals Ltd., priority 2003, dated 2015)
Marks after values point to notes of the source that are not given here.

These molecules were tested on circulating lymphocytes in whole blood (assay: number of circulating lymphocytes in whole blood of rats). Conditions: 6 h after oral administration of 10 mg/kg to normotensive male Wistar rats, compared to group treated with vehicle only.
Format: in vivo, normotensive male Wistar rats
Protocol: Normotensive male Wistar rats are housed in climate-controlled conditions with a 12-hour light/dark cycle, and have free access to normal rat chow and drinking water. Blood (0.5 mL) is collected by retro-orbital sampling before drug administration, and 3 and 6 h thereafter. Blood cell count is measured in whole blood using a Beckman-Coulter Synchron CX5 Pro cytometer. Statistical analysis of lymphocyte counts are performed by analysis of variance (ANOVA) using Statistica (StatSoft) and the Student-Newman-Keuls procedure for multiple comparisons. Thus, compounds of the invention decrease the number of circulating lymphocytes in whole blood when compared to pre-drug values.

| SMILES | Lymphocyte counts [%] |
| --- | --- |
| CC(C)/N=C1\S/C(=C\c2ccc(OCCO)c(Cl)c2)C(=O)N1c1ccccc1 [Example 7, 5-[3-Chloro-4-(2-hydroxy-ethoxy)-benz-(Z)-ylidene]-2-[(Z)-isopropylimino]-3-phenyl-thiazolidin-4-one] | −67 |
| CN(C)N=C1SC(=Cc2ccc(OCCO)cc2)C(=O)N1c1ccccc1 [Example 100, 2-(dimethyl-hydrazono)-5-[4-(2-hydroxy-ethoxy)-benz[Z]ylidene]-3-phenyl-thiazolidin-4-one] | −53 |
| CCC/N=C1\S/C(=C\c2ccc(OCC(O)CO)c(Cl)c2)C(=O)N1c1cccc(C)c1C (racemic) [Example 95, rac-5-[3-chloro-4-(2,3-dihydroxy-propoxy)-benz[Z]ylidene]-3-(2,3-dimethyl-phenyl)-2-([Z]-propylimino)-thiazolidin-4-one] | −53 |
| CC/N=C1\S/C(=C\c2ccc(OCCO)c(Cl)c2)C(=O)N1c1ccccc1 [Example 103, 5-[3-chloro-4-(2-hydroxy-ethoxy)-benz[Z]ylidene]-2-([Z]-Ethylimino)-3-phenyl-thiazolidin-4-one] | −47 |
| CC(C)/N=C1\S/C(=C\c2ccc(OCCO)cc2)C(=O)N1c1ccccc1 [Example 4, 5-[4-(2-Hydroxy-ethoxy)-benz-(Z)-ylidene]-2-[(Z)-isopropylimino]-3-phenyl-thiazolidin-4-one] | −32 |
| CCC/N=C1\S/C(=C\c2ccc(OCCO)c(Cl)c2)C(=O)N1c1ccccc1 [Example 75, 5-[3-chloro-4-(2-hydroxy-ethoxy)-benz[Z]ylidene]-3-phenyl-2-([Z]-propylimino)-thiazolidin-4-one] | −47 |
| Cc1cccc(N2C(=O)/C(=C/c3ccc(OCC(O)CO)c(Cl)c3)S/C2=N\C(C)C)c1C (racemic) [Example 46, rac-5-[3-chloro-4-(2,3-dihydroxy-propoxy)-benz[Z]ylidene]-3-(2,3-dimethyl-phenyl)-2-([Z]-isopropylimino)-thiazolidin-4-one] | −37 |
| CCC/N=C1\S/C(=C\c2ccc(OCCO)c(Cl)c2)C(=O)N1c1cccc(C)c1C [Example 91, 5-[3-chloro-4-(2-hydroxy-ethoxy)-benz[Z]ylidene]-3-(2,3-dimethyl-phenyl)-2-([Z]-propylimino)-thiazolidin-4-one] | −35 |
| Cc1cccc(N2C(=O)/C(=C/c3ccc(OCCO)c(Cl)c3)S/C2=N\C(C)C)c1C [Example 42, 5-[3-chloro-4-(2-hydroxy-ethoxy)-benz[Z]ylidene]-3-(2,3-dimethyl-phenyl)-2-([Z]-isopropylimino)-thiazolidin-4-one] | −23 |
| CC(C)/N=C1\S/C(=C\c2ccc(OCCO)c(Cl)c2)C(=O)N1C(C)C [Example 130, 5-[3-chloro-4-(2-hydroxy-ethoxy)-benz[Z]ylidene]-3-isopropyl-2-([Z]-isopropylimino)-thiazolidin-4-one] | −26 |
| CCC/N=C1\S/C(=C\c2ccc(OC[C@H](O)CO)c(Cl)c2)C(=O)N1c1ccccc1C [Example 85, 5-[3-chloro-4-((2R)-2,3-dihydroxy-propoxy)-benz-(Z)-ylidene]-2-[(Z)-propylimino]-3-o-tolyl-thiazolidin-4-one] | −63 |
| CCC/N=C1\S/C(=C\c2ccc(OCCO)c(C)c2)C(=O)N1c1ccccc1 [Example 76, 5-[4-(2-hydroxy-ethoxy)-3-methyl-benz[Z]ylidene]-3-phenyl-2-([Z]-propylimino)-thiazolidin-4-one] | −58 |
| Cc1ccccc1N1C(=O)/C(=C/c2ccc(OCC(O)CO)c(Cl)c2)S/C1=N\C(C)C (racemic) [Example 24, rac-5-[3-chloro-4-(2,3-dihydroxy-propoxy)-benz[Z]ylidene]-2-([Z]-isopropylimino)-3-o-tolyl-thiazolidin-4-one] | −54 |
| CC/N=C1\S/C(=C\c2ccc(OCCO)c(Cl)c2)C(=O)N1c1cccc(C)c1C [Example 110, 5-[3-chloro-4-(2-hydroxy-ethoxy)-benz[Z]ylidene]-3-(2,3-dimethyl-phenyl)-2-([Z]-ethylimino)-thiazolidin-4-one] | −30 |
| CCC/N=C1\S/C(=C\c2ccc(OCC(O)CO)c(Cl)c2)C(=O)N1c1ccccc1C (racemic) [Example 84, rac-5-[3-chloro-4-(2,3-dihydroxy-propoxy)-benz[Z]ylidene]-2-([Z]-propylimino)-3-o-tolyl-thiazolidin-4-one] | −68 |
| CCC/N=C1\S/C(=C\c2ccc(OCC(O)CO)c(Cl)c2)C(=O)N1c1ccccc1 (racemic) [Example 77, rac-5-[3-chloro-4-(2,3-dihydroxy-propoxy)-benz[Z]ylidene]-3-phenyl-2-([Z]-propylimino)-thiazolidin-4-one] | −55 |

Same assay, conditions: at 3 mg/kg p.o.; 6 h after oral administration to normotensive male Wistar rats, compared to group treated with vehicle only

| SMILES | Lymphocyte counts |
| --- | --- |
| CCC/N=C1\S/C(=C\c2ccc(OC[C@@H](O)CO)c(Cl)c2)C(=O)N1c1ccccc1C [Example 86, (S)-5-[3-chloro-4-(2,3-dihydroxy-propoxy)-benz[Z]ylidene]-2-([Z]-propylimino)-3-o-tolyl-thiazolidin-4-one] | −30* % |
